In experiment [1] the test system is LoVo/DX (colon cancer drug resistant). Put plainly: Antiproliferative SRB assay, 72 h exposure. The format is cell-based, human. The settings on record: Homo sapiens, LoVo/DX, mean ± SD of 3–5 experiments, n.a. = no activity in concentration of 5, 25, 125, 625 μM. The procedure:
(§1) The biological studies were performed in vitro using human cancer cell lines: MV4-11 (human biphenotypic B myelomonocytic leukaemia), A-549 (non-small cell lung cancer), MCF-7 (breast cancer), LoVo (colon cancer), LoVo/DX (colon cancer drug resistant), HepG2 (liver cancer) and BALB/3T3 (normal mice fibroblasts). These lines were obtained from American Type Culture Collection (Rockville, Maryland, U.S.A.). The cell line is being maintained in the Institute of Immunology and Experimental Therapy, Wroclaw, Poland. All cell lines were grown at 37°C with 5% CO2 humidified atmosphere and were cultured in cultured medium according to the method described before.
(§2) Prior to usage, the compounds were dissolved in DMSO or in mixture of 99.8% ethanol and DMSO (1:1) to the concentration of 25 or 50 mM, and subsequently diluted in culture medium to reach the required concentrations (ranging from 5 to 625 μM).
(§3) Twenty-four hours prior to the addition of tested compounds, the cells were plated in 96-well plates (Sarstedt, Germany) at a density of 1 × 10^4 cells per well in 100 μL of culture medium. The assay was performed after 72 h of exposure to varying concentrations of the tested agents. The in vitro cytotoxic effect of tested agents was examined using the MTT (for MV4-11 cells) or SRB assay which were described previously. Each compound in each concentration was tested in triplicate in a single experiment, which was repeated 3–5 times.
(§4) The results of antiproliferative activity were given as IC50 values. Using this parameter we calculated also the resistance indexes (RI) dividing the IC50 values of selected compounds estimated for drug resistant cell LOVO/DX line by respective values designated for drug sensitive LoVo line. According to Harker et al. three categories of the cells could be distinguished: (a) the cells are drug-sensitive—if the ratio approaches 0–2; (b) the cells are moderately drug-resistant—if the ratio ranges from 2 to 10; (c) the cells are markedly drug-resistant—if the ratio is higher than 10.
Background: The SRB assay estimates cell density from bound dye.

In experiment [2] the test system is MCF-7 (breast cancer). Put plainly: Antiproliferative SRB assay, 72 h exposure. The format is cell-based, human. Conditions: n.a. = no activity in concentration of 5, 25, 125, 625 μM. As to the method: as §1, §2, §3, §4
The subject of experiment [3] is LoVo (colon cancer). Put plainly: Antiproliferative SRB assay, 72 h exposure. Type of experiment: cell-based, human. Conditions: SRB, 72 h, mean ± SD of 3–5 experiments, n.a. = no activity in concentration of 5, 25, 125, 625 μM. The procedure:
as §1, §2, §3, §4

Experiment [4] has as its system drug resistant LOVO/DX line vs drug sensitive LoVo line. As to the kind of experiment: Resistance index (RI): IC50 LOVO/DX divided by IC50 LoVo. The format is cell-based, human. The settings on record: RI = IC50 resistant line / IC50 non-resistant line; 0<RI<2 able to overcome drug resistance; 2<RI<10 moderate ability; RI>10 no influence.
Excerpt: as §4

Experiment [5] concerns MV4-11 (human biphenotypic B myelomonocytic leukaemia). As to the kind of experiment: Antiproliferative MTT assay, 72 h exposure. The format is cell-based. The procedure: as §1, §2, §3, §4
A general note: Formazan colour is commonly taken as a measure of viable cells.

The test system of experiment [6] is HepG2 (liver cancer). As to the kind of experiment: Antiproliferative SRB assay, 72 h exposure. The format is cell-based, human. The settings on record: Homo sapiens, HepG2, mean ± SD of 3–5 experiments, n.a. = no activity in concentration of 5, 25, 125, 625 μM. As to the method: as §1, §2, §3, §4
Experiment [7] deals with A-549 (non-small cell lung cancer). As to the kind of experiment: Antiproliferative SRB assay, 72 h exposure. Type of experiment: cell-based, human. The settings on record: n.a. = no activity in concentration of 5, 25, 125, 625 μM. As to the method: as §1, §2, §3, §4
Experiment [8] has as its system BALB/3T3 (normal mice fibroblasts). As to the kind of experiment: Antiproliferative SRB assay, 72 h exposure. The format is cell-based. The settings on record: n.a. = no activity in concentration of 5, 25, 125, 625 μM. The procedure:
as §1, §2, §3, §4

Where [9] appears, read: Homo sapiens, MCF7, mean ± SD of 3–5 experiments.
Where [10] appears, read: Homo sapiens, MV4-11, mean ± SD of 3–5 independent experiments.
Setting [11] is: Homo sapiens, A549, mean ± SD of 3–5 experiments.
Setting [12] is: Mus musculus, BALB/3T3, mean ± SD of 3–5 experiments.

Regarding `C=CC(C)(CCC=C(C)C)CC(=O)OC[C@@H](O)COP(=O)([O-])OCC[N+](C)(C)C` (stereo partly shown) [Compound 8a], the IC50 in experiment [1] stood at 469 ± 3.2 µM; in experiment [2] (setting [9]) it was 372 ± 28.1 µM; in experiment [3] (Homo sapiens, LoVo), 245 ± 68.5 µM; in experiment [5] (setting [10]), 269 ± 18 µM. Also, the “Resistance index (RI)” value in experiment [4] is on record as 1.61.
As for `CCC/C=C1/C(C)(C)CCCC1(C)CC(=O)OC[C@@H](O)COP(=O)([O-])OCC[N+](C)(C)C` (stereo partly drawn) [Compound 8c, (2’R)-1’-{2-[(3R,2"E)-2"-butylidene-1",3",3"-trimethyl]cyclohexyl}acetyl-2’-hydroxy-sn-glycero-3’-phospocholine + (2’R)-1’-{2-[(3S,2"E)-2"-butylidene-1",3",3"-trimethyl]cyclohexyl}acetyl-2’-hydroxy-sn-glycero-3’-phospocholine], the IC50 is 382 ± 32.4 µM in experiment [1]; 470 ± 52.9 µM in experiment [2] (setting [9]); 284 ± 9.7 µM in experiment [3] (Homo sapiens, LoVo); 203 ± 15 µM in experiment [5] (setting [10]). In experiment [4], the “Resistance index (RI)” value is 1.23.
Consider `C=CC(C)(CCCC(C)CCCC(C)CCCC(C)C)CC(=O)OC[C@@H](O)COP(=O)([O-])OCC[N+](C)(C)C` (stereo partly shown) [Compound 8d], for which, in experiment [5] (setting [10]), the IC50 is 47.4 ± 6.35 µM.
As for `C=CC(C)(CCC=C(C)C)CC(=O)OC[C@H](COP(=O)([O-])OCC[N+](C)(C)C)OC(=O)CCCCCCCCCCCCCCC` (stereo partly shown) [Compound 9a], the IC50 in experiment [1] is 52.7 ± 3.3 µM; in experiment [6], 59.2 ± 4.6 µM; in experiment [7] (setting [11]) it was 38.3 ± 6.7 µM; in experiment [2] (setting [9]), 40 ± 1.9 µM; in experiment [3] (Homo sapiens, LoVo), 32.8 ± 5.1 µM; in experiment [5] (setting [10]), 31.8 ± 1.62 µM. Moreover, in experiment [8] (setting [12]), the IC50 was found to be 57.6 ± 1 µM.
With `C=CC(C)(CC/C=C(\C)CCC=C(C)C)CC(=O)OC[C@H](COP(=O)([O-])OCC[N+](C)(C)C)OC(=O)CCCCCCCCCCCCCCC` (stereo partly shown) [Compound 9b], the IC50 worked out at 537 ± 61.2 µM in experiment [1]; 489 ± 57.7 µM in experiment [2] (setting [9]); 269 ± 29.9 µM in experiment [3] (Homo sapiens, LoVo); 299 ± 39.3 µM in experiment [5] (setting [10]).
Consider `CCC/C=C1/C(C)(C)CCCC1(C)CC(=O)OC[C@H](COP(=O)([O-])OCC[N+](C)(C)C)OC(=O)CCCCCCCCCCCCCCC` (stereo partly drawn) [Compound 9c, (2’R)-1’-{2-[(3R,2"E)-2"-butylidene-1",3",3"-trimethyl]cyclohexyl}acetyl-2’-palmitoyl-sn-glycero-3’-phospocholine + (2’R)-1’-{2-[(3S,2"E)-2"-butylidene-1",3",3"-trimethyl]cyclohexyl}acetyl-2’-palmitoyl-sn-glycero-3’-phospocholine], for which the half-maximal inhibitory concentration (IC50) is 75.5 ± 8.1 µM in experiment [1]; 303 ± 77.6 µM in experiment [6]; 68.3 ± 1.5 µM in experiment [7] (setting [11]); 102 ± 11.2 µM in experiment [2] (setting [9]); 61.5 ± 4.84 µM in experiment [3] (Homo sapiens, LoVo); 50 ± 9 µM in experiment [5] (setting [10]). The compound further came in with an IC50 in experiment [8] (setting [12]) of 292 ± 41.5 µM.
With `C=CC(C)(CCCC(C)CCCC(C)CCCC(C)C)CC(=O)OC[C@H](COP(=O)([O-])OCC[N+](C)(C)C)OC(=O)CCCCCCCCCCCCCCC` (stereo partly shown) [Compound 9d], the IC50 in experiment [5] (setting [10]) stood at 259 ± 37 µM.
Turning to `CCCCCCCCCCCCCCCC(=O)OC[C@H](COP(=O)([O-])OCC[N+](C)(C)C)OC(=O)CCCCCCCCCCCCCCC` [DPPC, reference compound], the IC50 stood at 230 ± 31.3 µM in experiment [7] (mean ± SD of 3–5 experiments); 398 ± 194 µM in experiment [2] (mean ± SD of 3–5 experiments); 274 ± 17.1 µM in experiment [3]; 179 ± 30.2 µM in experiment [5] (mean ± SD of 3–5 independent experiments); 48.8 ± 2.1 µM in experiment [8] (mean ± SD of 3–5 experiments).
Turning to `COc1cccc2c1C(=O)c1c(O)c3c(c(O)c1C2=O)C[C@@](O)(C(=O)CO)C[C@@H]3O[C@H]1C[C@H](N)[C@H](O)[C@H](C)O1` [Doxorubicin, doxorubicin, reference compound], in experiment [4], the “Resistance index (RI)” value stood at 55.81.
Consider `CCCCCCCCCCCCCCCC(=O)O` [Palmitic acid, reference compound], for which the IC50 in experiment [1] was found to be 86.3 ± 21.3 µM; in experiment [6], 275 ± 85.2 µM; in experiment [7] (setting [11]), 56.4 ± 1.6 µM; in experiment [2] (setting [9]) it was 123 ± 63.4 µM; in experiment [3] (Homo sapiens, LoVo) it was 42.1 ± 4.6 µM; in experiment [5] (setting [10]) it was 161 ± 78.9 µM. The same compound yielded a 50% inhibitory concentration (IC50) in experiment [8] (setting [12]) of 60.4 ± 4 µM.

In general, IC50 refers to the concentration that inhibits the measured activity by half.

The record behind these values is paper PMC5308787, “Isoprenoid-phospholipid conjugates as potential therapeutic agents: Synthesis, characterization and antiproliferative studies” (PLoS ONE, 2017).
